In article PMC11243320, “Tailoring Fibroblast-Activation Protein Targeting for Theranostics: A Comparative Preclinical Evaluation of the ^68Ga- and ^177Lu-Labeled Monomeric and Dimeric Fibroblast-Activation Protein Inhibitors DOTA.SA.FAPi and DOTAGA.(SA.FAPi)2” (Molecules, 2024):

Tested on: CAFs
Assay: Internalization studies in CAFs
Assay type: cell-based, human
Conditions: 37 °C
Description: For saturation studies, CAFs were incubated with increasing concentrations of the radiotracers (0.1–10 nM). For internalization studies, approximately 2.5 pmol of the radiotracers were added to CAFs followed by incubation for 15, 30, 60, 90, 120, 180 and 240 min for the ^68Ga-labeled or 30, 60, 120, 240 and 360 min for the ^177Lu-labeled radiotracers at 37 °C, 5% CO2. For the externalization studies, approximately 2.5 pmol of the ^177Lu-labeled radiotracers were added to CAFs followed by incubation for 2 h at 37 °C, 5% CO2. Afterward, the amount of the externalized activity from the CAFs was determined at 0, 10, 20, 30, 60, 120, 240, and 1440 min (Supplemental Data).
Saturation Binding Studies […]
for 0.5, 1, 2, 4 and 6 h at 37 °C, 5% CO2 for the 177Lu-labeled tracers. […] The radioactivity of the culture medium, the receptor bound, and the internal-ized fractions were measured in a γ-counter. […]
The radioactivity of the culture medium, the receptor bound , the internalized and the externalized fractions were measured in a γ -counter. The externalized fraction of radioactivity was ex-pressed as the percentage of the total internalized amount. […]

Row | Structure (SMILES) | Total cell associated uptake (% of total applied radioactivity) (6 h) [%] | Total cell associated uptake (% of total applied radioactivity) (4 h) [%]
1 | N#C[C@@H]1CC(F)(F)CN1C(=O)CNC(=O)c1ccnc2ccc(OCCCCNc3c(NCCNC(=O)CN4CCN(CC(=O)[O-])CCN(CC(=O)[O-])CCN(CC(=O)[O-])CC4)c(=O)c3=O)cc12.[177Lu+3] [[^177Lu]Lu-DOTA.SA.FAPi] | 21.1 ± 1.1 | 
2 | N#C[C@@H]1CC(F)(F)CN1C(=O)CNC(=O)c1ccnc2ccc(OCCCCNc3c(NCCNC(=O)CN4CCN(CC(=O)[O-])CCN(CC(=O)[O-])CCN(CC(=O)[O-])CC4)c(=O)c3=O)cc12.[68Ga+3] [[^68Ga]Ga-DOTA.SA.FAPi] |  | 21.9 ± 1.2
